Test results taken from patent US8735602B2, “Pharmaceutically acceptable salts of thymodepressin and processes for their manufacture” (Apotex Technologies inc., priority 2006, dated 2014).

How the values were obtained:
Format in all cases: physicochemical
[1] = Speciation plot (FIG. 5) calculation of solution pH from experimentally determined pKas; settings: according to the speciation plot calculation
Description: A pharmaceutically acceptable salt of a drug substance is one that is chemically stable and can be used in a pharmaceutical composition. Unlike simple aromatic hydrocarbons, thymodepressin is a dipeptide with multi-functional groups. The dipeptide D-isoglutamyl-D-tryptophan has an alpha amine, two carboxylic acids and an indole nitrogen within the same molecule. An ideal salt should be one that has a solution pH close to about 7 and in the low basic pH range. Through investigations in our laboratory, in the search for a novel salt to address the shortcomings of the disodium salt of D-isoglutamyl-D-tryptophan, the speciation plot (FIG. 5) was used to determine salts with ideal solution pH and solubility that are suitable for pharmaceutical formulations. FIG. 5 is a speciation plot of H-D-iGlu-D-Trp-OH from pH 0 to 12 using experimentally determined pKas. In FIG. 5, LH2=H-D-iGlu-D-Trp-OH, LH=mono carboxylic acid salt, L=dicarboxylic acid salt, and LH3=acid addition salt of H-D-iGlu-D-Trp-OH. The X axis provides the pH of the solution, whereas the Y axis reports the amount of the species present at a particular pH. From our practical experience, we use 6 ml of water per gm of H-D-iGlu-D-Trp-OH for isolation purposes, which corresponds to a concentration of 0.5 M solution.
According to the speciation plot calculation shown in FIG. 5, the diacid form has a pH of about 2.7 to about 3 in solution. The metal salt of formula I wherein M is potassium or lithium; the divalent salt of formula II wherein B is calcium or magnesium has a solution pH close to about 7.
We have applied the speciation plot (FIG. 5) to compute the pH range of the salt forms of the dipeptide H-D-iGlu-D-Trp-OH. […] This is particular ideal for liquid formulation, sublingual tablets, nasal drops and sprays.

[2] = Stability of the solid salt
Description: It is extremely hygroscopic and very difficult to weigh for formulation research. In solution, as per the speciation plot (FIG. 5), the pH is above 9.0 and the solution pH must be adjusted to about 7.0 to about 7.4 in a formulation preparation.

[3] = Hygroscopicity of the freeze-dried solid in air
[4] = Percent crystallinity by X-ray powder diffraction; settings: XRPD, D8 system with 2D detector; not absolute values
Experimental: The percent crystallinity is commonly measured as a ratio between the diffraction portion from the crystalline part of the sample, Ic, and the total diffraction from the same sample, IC+B. The values of IC can be obtained after an appropriate subtraction of the scattering portion from the background, IB.
For such kind of analyses, the diffraction is measured as total area under the profile of: • the whole pattern as it is collected (one may correct for the air scattering) −ITOTAL* • the peaks only (IC) after subtraction of the background (correction for the air scattering), • the background only with correction for air scattering −(IB).
However, in this study, due to the technical problems with the D5000 point-detector diffraction system, all the samples were analyzed on a D8 system, equipped with an area, 2D detector, and the above-mentioned approach could not be applied. Therefore, another technique has been developed for measuring the crystallinity of samples analyzed on such system. Only a narrow part of the 2D diffraction image is chosen with a single peak at the centre and a neighbour area where the background will be measured.
All samples were measured for calculation of their crystallinity using a narrow range of 21°-25° with a strongest reflection at […]. The background was subtracted as linear, and an empirical correlation coefficient of 2.5 was applied.

Compound | pH in solution [1] | stability as a solid [2] | hygroscopicity [3] | percent crystallinity [4]
D-isoglutamyl-D-tryptophan magnesium salt (2:1) [magnesium salt of formula II] | about 7 | – | – | –
disodium salt of D-isoglutamyl-D-tryptophan | above 9.0 | less stable chemical entity as a solid | extremely hygroscopic turning into a gel in a matter of minutes in air | –
Calcium Salt of D-isoglutamyl-D-tryptophan (1:2) [Example 8] | – | – | – | 18-20%
D-isoglutamyl-D-tryptophan calcium salt (2:1) [calcium salt of formula II] | about 7 | – | – | ≤ 67%
NC(=O)[C@H](N)CCC(=O)N[C@H](Cc1c[nH]c2ccccc12)C(=O)[O-].[K+] [potassium salt of formula I, D-isoglutamyl-D-tryptophan potassium salt (1:1)] | about 7 | – | – | –
